From paper PMC11510177, “New Phytol Derivatives with Increased Cosmeceutical Potential” (Molecules, 2024)
Like-named read-outs stand apart in the source and are kept apart here.

Assays:
tyrosinase = target: T1, tyrosinase (Agaricus bisporus, UniProt C7FF04); assay: Tyrosinase inhibition assay; format: biochemical
T1 construct: purchased Sigma-Aldrich
Protocol: The extracts were assayed by adapting the tyrosinase inhibition method described by Shimizu et al. and modified by Manosroi et al.. […] The experiments were carried out in triplicate. For each concentration, enzyme activity was calculated as a percentage of the velocities compared to that of the assay using buffer without any inhibitor.

elastase = assay: Elastase inhibition assay; format: biochemical; details: 100 µM
Protocol: The extracts were assayed by the method described by Ndlovu et al. with some modifications. In brief, 25 μL of elastase enzyme solution (0.3 U/mL), 50 μL of ten serial concentrations of the extracts or fractions (0.100–100 μM dissolved in 100 mM HEPES buffer, pH 7.5 containing no more than 2.5 % DMSO), and 125 μL HEPES buffer were mixed in a 96-well plate and incubated at room temperature for 20 min. Then, 50 μL of N-methoxysuccinyl-Ala-Ala-Pro-Val-p-nitroanilide (1 mM) was added. The enzyme activity was measured at 405 nm in the moment of substrate addition and after 40 min of incubation at 25 °C. N-Methoxysuccinyl-Ala-Ala-Pro-chloromethyl ketone at 0.100–100 μM was used as a positive control. The experiments were carried out in triplicate. For each concentration, enzyme activity was calculated as a percentage of the velocities compared to that of the assay, using buffer without any inhibitor. The IC50 value, which was the sample concentration that inhibited 50% of the enzyme activity, was determined interpolation from the % elastase inhibition vs. concentration curve.

[1] = DPPH radical scavenging assay; details: 100 µM
Protocol: Antioxidant activity was assayed by the 1,1-diphenyl-2-picryl-hydrazyl (DPPH) radical scavenging assay. Serial dilutions of studied extracts or reference compound (Trolox) were carried out in 96-well microplates, with concentrations ranging between 0.100 μM and 100 μM in methanol. DPPH dissolved in methanol was added to the microwells, yielding a final concentration of 45 µg/mL, and the absorbance at 515 nm was measured after 30 min in the dark. In each assay, a control was prepared in which the same amount of solvent substituted the sample or standard. Percentage of antioxidant activity (% AA) was calculated as %AA = [(Abscontrol − Abssample)/Abscontrol] × 100 (1) where Abscontrol is the absorbance of the control and Abssample is the absorbance of the alga extract or standard. All assays were carried out in triplicate and the results expressed as IC50, i.e., as the concentration yielding 50% scavenging of DPPH, calculated by interpolation from the % AA vs. concentration curve.

hyaluronidase = assay: Hyaluronidase inhibition assay; format: biochemical; details: 100 µM; for increase in hyaluronidase inhibition over phytol: relative to phytol
Protocol: The assay was conducted following the Sigma protocol with minor adjustments. In a microplate, 25 µL of 5 U/mL of hyaluronidase prepared in 20 mM sodium phosphate buffer (pH 7.0) with 77 mM sodium chloride and 0.01% BSA, was pre-incubated with 50 µL of the sample in concentrations ranging from between 0.100 μM and 100 μM for 10 min at 37 °C. Subsequently, the assay was initiated by adding 25 µL hyaluronic acid (0.015 % in 300 mM sodium phosphate, pH 5.35) to the incubation mixture and incubated for an additional 30 min at 37 °C. Undigested hyaluronic acid was precipitated with 200 µL acid albumin solution composed of 0.1 % bovine serum albumin in 24 mM sodium acetate and 79 mM acetic acid (pH 3.75). After standing at room temperature for 10 min, the absorbance of the reaction mixture was measured at 600 nm. The absorbance in the absence of enzymes (blank) served as the reference value for maximum absorbance. Sodium aurothiomalate was used as a control inhibitor. Enzyme activity was verified by a control experiment conducted simultaneously, in which the enzyme was pre-incubated with buffer instead, followed by the assay procedures described above. The inhibitory activity of the test compound was determined as follows:%Inhibition = [1 − (Absblank − Abssample)/(Absblank − Abscontrol)] × 100(4) where Absblank is the absorbance of the reaction without enzyme, Abssample is the absorbance of the extract or standard compound sodium aurothiomalate, and Abscontrol is the absorbance of the enzyme without inhibitor. The IC50 value, which was the sample concentration that inhibited 50% of the enzyme activity, was determined by interpolation from the % hyaluronidase inhibition vs. concentration curve.

[2] = ABTS radical scavenging assay; details: 100 µM
Protocol: The method of Re et al. was adopted to perform the ABTS radical scavenging assay. The stock solutions included a 7 mM ABTS solution (2,2′-azinobis-(3 ethylbenzothiazoline 6 sulfonic acid)) and a 2.4 mM potassium persulfate solution. The working solution was prepared by mixing the two stock solutions in equal quantities and allowing for them to react for 12–16 h at room temperature in the dark. The solution was then diluted by mixing 1 mL ABTS solution with the amount of methanol necessary to obtain an absorbance of 0.7 at 734 nm. Serial dilutions of studied extracts or reference compound (Trolox) were carried out in 96-well microplates, with concentrations ranging between 0.100 μM and 100 μM in methanol. ABTS solution was then added to the microwells, and after 8 min of incubation, the absorbance was recorded at […]. In each assay, a negative control was prepared in which the same amount of solvent substituted the sample. The percentage of antioxidant activity (% AA) was calculated as %AA = [(Abscontrol − Abssample)/Abscontrol] × 100 (2) where Abscontrol is the absorbance of ABTS radical + methanol; Abssample is the absorbance of ABTS radical + sample/standard.
All assays were carried out in triplicate and results expressed as IC50, i.e., as the concentration yielding 50% scavenging of ABTS, calculated by interpolation from the % AA vs. concentration curve.

collagenase = assay: Collagenase inhibition assay; format: biochemical; details: 100 µM; for fold increase in collagenase inhibition over phytol: compared to phytol
Protocol: An adaptation of the method of Mandl et al. was used to determine anti-collagenase activity. The following was added to 2 mL test tubes: 25 μL of collagenase solution (0.8 U/mL); 25 μL TES buffer (50 mM) with 0.36 mM calcium chloride, pH 7.4; and 50 μL of test sample or the reference compound EDTA (with concentrations ranging between 0.100 and 100 μM). The tubes were incubated in a water bath at 37 °C for 20 min. Thereafter, 50 μL FALGPA (1 mM) solution was added to the tubes and further incubated for 60 min at 37 °C. To all tubes, 200 μL of a solution containing equal volumes of a 1.6 mg/mL tin chloride (II) solution in 200 mM citrate buffer, pH 5, and 50 mg/mL ninhydrin solution in DMSO were added. All tubes were placed in a water bath (100 °C) for 5 min and left to cool to room temperature before adding 200 μL of 50% isopropanol to each tube. Contents in the tubes were then transferred to respective wells in 96-well plates. Absorbance was detected at 550 nm. EDTA was used as a control inhibitor. Percentage of collagenase inhibition was calculated as % Collagenase inhibition = [(Abscontrol − Abssample)]/Abscontrol] × 100 (5) where Abscontrol is the absorbance of buffer + collagenase; Abseample is the absorbance of buffer + collagenase + sample/standard.
All assays were carried out in triplicate and results expressed as IC50, i.e., as the concentration yielding 50% of collagenase inhibition, calculated by interpolation from the % collagenase inhibition vs. concentration curve.

[3] = read-out: IC50 against tyrosinase

T1 sequence (C7FF04 1-392 limits assumed): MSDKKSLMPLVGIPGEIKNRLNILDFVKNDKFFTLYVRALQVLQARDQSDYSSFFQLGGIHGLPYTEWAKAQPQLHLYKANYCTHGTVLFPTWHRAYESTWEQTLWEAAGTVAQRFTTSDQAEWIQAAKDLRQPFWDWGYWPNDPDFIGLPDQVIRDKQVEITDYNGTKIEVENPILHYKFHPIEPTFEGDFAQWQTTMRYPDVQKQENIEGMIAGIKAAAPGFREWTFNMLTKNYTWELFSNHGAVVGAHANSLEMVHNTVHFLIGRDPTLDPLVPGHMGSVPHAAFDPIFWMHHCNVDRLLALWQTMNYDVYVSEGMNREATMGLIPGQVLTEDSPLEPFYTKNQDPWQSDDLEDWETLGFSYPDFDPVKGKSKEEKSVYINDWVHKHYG

Q: With `C/C(=C\COC(=O)c1ccccc1)CCC[C@@H](C)CCC[C@@H](C)CCCC(C)C` (stereo in doubt) [Compound 1a, Phytyl benzoate] as the compound, how does the IC50 (tyrosinase; [3]) read?
A: 34.73 ± 0.1 µM

Q: What about the elastase inhibition (elastase) of the same compound?
A: 43.28%

Q: And the “Percentage of DPPH scavenging” value [1]?
A: 4.75%

Q: What about the hyaluronidase inhibition (hyaluronidase) of the same compound?
A: 37.32%

Q: And the “increase in hyaluronidase inhibition over phytol” value (hyaluronidase)?
A: 15–20%

Q: Which results are given for `C/C(=C\COC(=O)/C=C/c1ccccc1)CCC[C@@H](C)CCC[C@@H](C)CCCC(C)C` (stereo in doubt) [Compound 1f, Phytyl cinnamoate]?
A: IC50 (tyrosinase; [3]): 95.68 ± 0.94 µM; Percentage of DPPH scavenging [1]: about 50%; Percentage of ABTS scavenging [2]: about 50%; increase in ABTS antioxidant activity compared to phytol (1) [2]: 30%

Q: What does the source list for `CC(=CCO)CCCC(C)CCCC(C)CCCC(C)C` (stereo not shown) [Compound 1, 3,7,11,15-tetramethylhexadec-2-en-1-ol, reference compound]?
A: IC50 (tyrosinase; IC50 against tyrosinase): 77.5 ± 0.8 µM; elastase inhibition (elastase): 6.4%; collagenase inhibition (collagenase): 31.89%

Q: Which IC50 (tyrosinase; [3]) does the source give for `COc1ccccc1C(=O)OC/C=C(\C)CCC[C@H](C)CCC[C@H](C)CCCC(C)C` [Compound 1b, Phytyl 2-methoxybenzoate] here?
A: 59.62 ± 0.51 µM

Q: What about the elastase inhibition (elastase) of the same compound?
A: low

Q: What about the hyaluronidase inhibition (hyaluronidase) of the same compound?
A: 34.74%

Q: Which results are given for `COc1cccc(C(=O)OC/C=C(\C)CCC[C@H](C)CCC[C@H](C)CCCC(C)C)c1` [Compound 1c, Phytyl 3-methoxybenzoate]?
A: IC50 (tyrosinase; [3]): 79 ± 0.87 µM; elastase inhibition (elastase): low; fold increase in collagenase inhibition over phytol (collagenase): 1.42 fold; hyaluronidase inhibition (hyaluronidase): 40.1%; increase in hyaluronidase inhibition over phytol (hyaluronidase): 28%

Q: For `COc1ccc(C(=O)OC/C=C(\C)CCC[C@H](C)CCC[C@H](C)CCCC(C)C)cc1` [Compound 1d, Phytyl 4-methoxybenzoate], which IC50 (tyrosinase; [3]) is on record?
A: 27.9 µM

Q: And the collagenase inhibition (collagenase)?
A: 49.67%

Q: And the “fold increase in collagenase inhibition over phytol” value (collagenase)?
A: 1.56 fold

Q: And the “Percentage of ABTS scavenging” value [2]?
A: about 50%

Q: And the “increase in ABTS antioxidant activity compared to phytol (1)” value [2]?
A: 30%

Q: What about the hyaluronidase inhibition (hyaluronidase) of the same compound?
A: 22.54%

Q: For `C/C(=C\COC(=O)c1ccc(Cl)cc1)CCC[C@H](C)CCC[C@H](C)CCCC(C)C` [Compound 1e, Phytyl 4-chlorobenzoate], which IC50 (tyrosinase; [3]) is on record?
A: > 100 µM

Q: And the elastase inhibition (elastase)?
A: 27.78%

Q: And the “Percentage of DPPH scavenging” value [1]?
A: 11.12%

Q: And the “fold increase in collagenase inhibition over phytol” value (collagenase)?
A: 1.38 fold

Q: And the “increase in ABTS antioxidant activity compared to phytol (1)” value [2]?
A: 30%

Q: And the hyaluronidase inhibition (hyaluronidase)?
A: 14.66%

Q: For `C/C(=C\COC(=O)C=Cc1ccc([N+](=O)[O-])cc1)CCC[C@H](C)CCC[C@H](C)CCCC(C)C` [Compound 1g, Phytyl 4-nitrocinnamoate], which IC50 (tyrosinase; [3]) is on record?
A: 64.1 ± 0.67 µM

Q: And the “Percentage of DPPH scavenging” value [1]?
A: 37.46%

Q: And the collagenase inhibition (collagenase)?
A: 41.02%

Q: What about the “fold increase in collagenase inhibition over phytol” value (collagenase) of the same compound?
A: 1.28 fold

Q: What about the “Percentage of ABTS scavenging” value [2] of the same compound?
A: 28.74%

Q: What about the hyaluronidase inhibition (hyaluronidase) of the same compound?
A: 23.06%

Q: For `C/C(=C\COC(=O)c1ccco1)CCC[C@H](C)CCC[C@H](C)CCCC(C)C` [Compound 1h, Phytyl 2-furoate], which IC50 (tyrosinase; [3]) is on record?
A: > 100 µM

Q: And the elastase inhibition (elastase)?
A: 28.3%

Q: What about the collagenase inhibition (collagenase) of the same compound?
A: 22.37%

Q: And the hyaluronidase inhibition (hyaluronidase)?
A: 36.02%

Q: And the “increase in hyaluronidase inhibition over phytol” value (hyaluronidase)?
A: 15–20%

Q: Which results are given for `C/C(=C\COC(=O)c1cccs1)CCC[C@H](C)CCC[C@H](C)CCCC(C)C` [Compound 1i, Phytyl 2-thiophenecarbonoate]?
A: IC50 (tyrosinase; [3]): > 100 µM; elastase inhibition (elastase): 18.19%; collagenase inhibition (collagenase): 41.68%; fold increase in collagenase inhibition over phytol (collagenase): 1.28 fold; Percentage of ABTS scavenging [2]: 40.58%

Q: For `Cc1c(C)c2c(c(C)c1O)CCC(C)(C(=O)O)O2` (stereo not shown) [Trolox, 6-hydroxy-2,5,7,8-tetramethylchroman-2-carboxylic acid, reference compound], which “Percentage of DPPH scavenging” value [1] is on record?
A: 97.54%
